From the supplement of paper PMC11061612

Assays:
Test in all cases: Bliss excess, mean over the matrix (fraction); higher = more synergy
[1] = tested on: AsPC-1 (Pancreatic Carcinoma)
Outline: (§1)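 Cell lines grown in DMEM/F12 or RPMI with 10% FBS were plated in 1536-well plates and held 24 hours at 37°C, 5% CO2 before 72 hours of exposure to two-drug dose matrices, with DMSO typically at 0.2%. CellTiter-Glo 2.0 luminescence gave viability, which was converted to inhibition. Vehicle wells were set to 0 and blank wells to 1. Combination Emax is the second-highest inhibition in the matrix, and Bliss excess is the observed combination effect minus the expected EA + EB − EA·EB, where EA and EB are the single-agent effects.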

[2] = tested on: Becker (Low Grade Glioma)
Outline: as §1

[3] = tested on: HSC-3 (Oral Cavity Carcinoma)
Outline: as §1

[4] = tested on: NCI-H1563 (Lung Adenocarcinoma)
Outline: as §1

[5] = tested on: KYSE-70 (Esophageal Squamous Cell Carcinoma)
Outline: as §1

[6] = tested on: RERF-LC-KJ (Lung Adenocarcinoma)
Outline: as §1

[7] = tested on: SK-MM-2 (Plasma Cell Myeloma)
Outline: as §1

[8] = tested on: LAMA-84 (Chronic Myelogenous Leukemia)
Outline: as §1

[9] = tested on: NCI-H810 (Non-Small Cell Lung Carcinoma)
Outline: as §1

[10] = tested on: 786-0 (Kidney Carcinoma)
Outline: as §1

[11] = tested on: RT4 (Bladder Carcinoma)
Outline: as §1

[12] = tested on: LOUCY (T-Lymphoblastic Leukemia)
Outline: as §1

[13] = tested on: HuO-3N1 (Osteosarcoma)
Outline: as §1

[14] = tested on: BALL-1 (B-Lymphoblastic Leukemia)
Outline: as §1

[15] = tested on: RPMI-8866 (Chronic Myelogenous Leukemia)
Outline: as §1

[16] = tested on: FLO-1 (Esophageal Adenocarcinoma)
Outline: as §1

[17] = tested on: NCI-H1755 (Lung Adenocarcinoma)
Outline: as §1

[18] = tested on: PC-14 (Lung Adenocarcinoma)
Outline: as §1

[19] = tested on: NCI-H1623 (Lung Adenocarcinoma)
Outline: as §1

[20] = tested on: NCI-H1155 (Non-Small Cell Lung Carcinoma)
Outline: as §1

Compound	Bliss excess [1]	Bliss excess [2]	Bliss excess [3]	Bliss excess [4]	Bliss excess [5]	Bliss excess [6]	Bliss excess [7]	Bliss excess [8]	Bliss excess [9]	Bliss excess [10]	Bliss excess [11]	Bliss excess [12]	Bliss excess [13]	Bliss excess [14]	Bliss excess [15]	Bliss excess [16]	Bliss excess [17]	Bliss excess [18]	Bliss excess [19]	Bliss excess [20]
Cn1cnc2c(F)c(Nc3ccc(Br)cc3Cl)c(C(=O)NOCCO)cc21 [Selumetinib] + C[C@@H]1COCCN1C2=NC(=NC(=C2)C3(CC3)[S@](=N)(=O)C)C4=C5C=CNC5=NC=C4 [AZD6738] (first compound max 10 µM, 7x7, partner max 10 µM)	0.0716	0.0016	0.0049	-0.0297	-0.0408	0.0075	-0.0604	0.0012	-0.0707	-0.0735	-0.0036	-0.0446	-0.0994	-0.0066	-0.0129	-0.0137	0.012	-0.0022	0.0028	-0.0028
CC(=O)Nc1cccc(-n2c(=O)n(C3CC3)c(=O)c3c(Nc4ccc(I)cc4F)n(C)c(=O)c(C)c32)c1 [Trametinib] + Cc1nc(-c2cn3c(n2)-c2ccc(-c4cnn(C(C)(C)C(N)=O)c4)cc2OCC3)n(C(C)C)n1 [Taselisib] (first compound max 1 µM, 7x7, partner max 10 µM)	0.0654	0.121	0.15	0.103	0.182	0.0564	0.0386	0.0537	-0.052	-0.0229	0.0566	0.0668	0.0402	0.142	0.118	0.047	0.115	0.163	0.144	0.0426
CC1(C)CCC(CN2CCN(c3ccc(C(=O)NS(=O)(=O)c4ccc(NCC5CCOCC5)c([N+](=O)[O-])c4)c(Oc4cnc5[nH]ccc5c4)c3)CC2)=C(c2ccc(Cl)cc2)C1 [Venetoclax] + C1CN(CCC1(C(=O)N[C@@H](CCO)C2=CC=C(C=C2)Cl)N)C3=NC=NC4=C3C=CN4 [Capivasertib] (first compound max 1 µM, 7x7, partner max 3 µM)	-0.088	0.0046	-0.0501	-0.0411	-0.0102	-0.0808	-0.0449	-0.0498	-0.0663	-0.0428	-0.0469	0.104	-0.0347	0.0213	-0.0224	-0.0841	-0.034	-0.038	-0.0643	-0.0482
CC1(C)CCC(CN2CCN(c3ccc(C(=O)NS(=O)(=O)c4ccc(NCC5CCOCC5)c([N+](=O)[O-])c4)c(Oc4cnc5[nH]ccc5c4)c3)CC2)=C(c2ccc(Cl)cc2)C1 [Venetoclax] + C=CCn1c(=O)c2cnc(Nc3ccc(N4CCN(C)CC4)cc3)nc2n1-c1cccc(C(C)(C)O)n1 [AZD1775] (first compound max 1 µM, partner max 1 µM)	-0.0879	0.0593	-0.0216	0.0451	-0.0169	-0.0394	0.102	0.0884	-0.0873	-0.0686	0.0364	0.0193	-0.0172	0.0171	-0.0547	0.0161	0.054	-0.0027	-0.0218	-0.0417
CC1(C)CCC(CN2CCN(c3ccc(C(=O)NS(=O)(=O)c4ccc(NCC5CCOCC5)c([N+](=O)[O-])c4)c(Oc4cnc5[nH]ccc5c4)c3)CC2)=C(c2ccc(Cl)cc2)C1 [Venetoclax] + CCN(CCO)CCCOc1ccc2c(Nc3cc(CC(=O)Nc4cccc(F)c4)[nH]n3)ncnc2c1 [AZD2811] (first compound max 1 µM, 7x7, partner max 1 µM)	-0.0755	0.0074	-0.0475	0.0151	0.0245	-0.0222	-0.0099	-0.0036	-0.034	-0.0469	0.0704	-0.0278	0.0175	0.0632	0.133	-0.019	-0.0135	0.0131	-0.0165	0.132
CC1(C)CCC(CN2CCN(c3ccc(C(=O)NS(=O)(=O)c4ccc(NCC5CCOCC5)c([N+](=O)[O-])c4)c(Oc4cnc5[nH]ccc5c4)c3)CC2)=C(c2ccc(Cl)cc2)C1 [Venetoclax] + CN(C)CCCOc1ccc(-c2ccc3ncc4c(c3c2)n(C2CCOCC2)c(=O)n4C)cn1 [AZD0156] (first compound max 1 µM, 7x7, partner max 1 µM)	-0.1	0.0229	0.012	-0.0099	-0.0359	0.013	-0.0129	0.0018	-0.0485	-0.0327	-0.0259	0.0594	-0.0235	0.031	-0.0408	-0.113	0.0342	0.0043	-0.0133	-0.0214
CC1(C)CCC(CN2CCN(c3ccc(C(=O)NS(=O)(=O)c4ccc(NCC5CCOCC5)c([N+](=O)[O-])c4)c(Oc4cnc5[nH]ccc5c4)c3)CC2)=C(c2ccc(Cl)cc2)C1 [Venetoclax] + COc1cc(Nc2ncc3c(n2)-c2ccc(Cl)cc2C(c2c(F)cccc2OC)=NC3)ccc1C(=O)O [Alisertib] (first compound max 1 µM, 7x7, partner max 10 µM)	-0.0701	0.0786	0.0079	-0.0523	-0.0084	-0.0527	0.0207	-0.0447	0.0303	-0.0114	0.0354	0.0646	-0.0154	0.0181	0.0475	-0.0379	-0.0281	0.0366	0.045	0.346
CC1(C)CCC(CN2CCN(c3ccc(C(=O)NS(=O)(=O)c4ccc(NCC5CCOCC5)c([N+](=O)[O-])c4)c(Oc4cnc5[nH]ccc5c4)c3)CC2)=C(c2ccc(Cl)cc2)C1 [Venetoclax] + C[C@@H]1COCCN1C2=NC(=NC(=C2)C3(CC3)[S@](=N)(=O)C)C4=C5C=CNC5=NC=C4 [AZD6738] (first compound max 1 µM, 7x7, partner max 10 µM)	-0.0301	-0.0388	-0.0022	0.0131	-0.0447	-0.0036	0.0217	-0.0263	-0.0356	-0.0882	-0.0281	-0.0462	-0.0375	0.0053	0.0052	-0.0338	-0.0578	-0.021	0.0068	0.0582
CC1(C)CCC(CN2CCN(c3ccc(C(=O)NS(=O)(=O)c4ccc(NCC5CCOCC5)c([N+](=O)[O-])c4)c(Oc4cnc5[nH]ccc5c4)c3)CC2)=C(c2ccc(Cl)cc2)C1 [Venetoclax] + C[C@@H](Nc1cc(F)cc(F)c1)c1cc(C(=O)N(C)C)cc2c(=O)cc(N3CCOCC3)oc12 [AZD8186] (first compound max 1 µM, 7x7, partner max 3 µM)	-0.0817	0.0404	-0.0286	0.0389	-0.0239	-0.0632	0.024	-0.0006	-0.0489	-0.0095	-0.0208	0.0146	0.0158	-0.0008	0.0151	-0.0712	0.0229	-0.0169	-0.0215	-0.026
CC1(C)CCC(CN2CCN(c3ccc(C(=O)NS(=O)(=O)c4ccc(NCC5CCOCC5)c([N+](=O)[O-])c4)c(Oc4cnc5[nH]ccc5c4)c3)CC2)=C(c2ccc(Cl)cc2)C1 [Venetoclax] + Cc1cc2ncnn2cc1Nc1ncc2c(n1)n(C1CCOCC1)c(=O)n2C [AZD7648] (first compound max 1 µM, 7x7, partner max 10 µM)	-0.0803	0.0128	0.0185	-0.0123	-0.0003	-0.0564	0.0145	-0.0041	-0.028	-0.0487	-0.0115	0.0678	0.044	-0.0008	-0.026	-0.114	-0.025	-0.0163	-0.0006	-0.041
CC1(C)CCC(CN2CCN(c3ccc(C(=O)NS(=O)(=O)c4ccc(NCC5CCOCC5)c([N+](=O)[O-])c4)c(Oc4cnc5[nH]ccc5c4)c3)CC2)=C(c2ccc(Cl)cc2)C1 [Venetoclax] + Cn1cnc2c(F)c(Nc3ccc(Br)cc3Cl)c(C(=O)NOCCO)cc21 [Selumetinib] (first compound max 1 µM, 7x7, partner max 3 µM)	-0.0748	-0.008	-0.0043	0.0042	0.012	-0.0265	0.0187	-0.0157	-0.052	-0.0347	-0.0521	0.0179	-0.011	-0.0026	-0.057	-0.0485	0.0328	-0.0229	-0.0046	-0.0317
